{"source": "paper PMC10382584", "about": "“Macrocyclization of linear molecules by deep learning to facilitate macrocyclic drug candidates discovery” (Nature Communications, 2023);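 note: KINOMEscan kinase panel binding assay, signal normalized between DMSO as 100% and a positive control compound as 0%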", "assay_in_all_cases": "biochemical", "parameters_in_all_cases": "DiscoveRx KINOMEscan competition binding, percent of DMSO control signal at 100 nM", "settings_in_all_cases": "read-out: Fig. 4a / Percent Control / Compound 1; percent of DMSO control, competition binding", "key": {"SLK": {"molecular_target": "SLK (Homo sapiens, UniProt Q9H2G2)"}, "SYK": {"molecular_target": "SYK (Homo sapiens, UniProt P43405)"}, "NEK4": {"molecular_target": "NEK4 (Homo sapiens, UniProt P51957)"}, "MTOR": {"molecular_target": "MTOR (Homo sapiens, UniProt P42345)"}, "TTK": {"molecular_target": "TTK (Homo sapiens, UniProt P33981)"}, "CSNK1A1": {"molecular_target": "CSNK1A1 (Homo sapiens, UniProt P48729)", "sequence (P48729 whole entry)": "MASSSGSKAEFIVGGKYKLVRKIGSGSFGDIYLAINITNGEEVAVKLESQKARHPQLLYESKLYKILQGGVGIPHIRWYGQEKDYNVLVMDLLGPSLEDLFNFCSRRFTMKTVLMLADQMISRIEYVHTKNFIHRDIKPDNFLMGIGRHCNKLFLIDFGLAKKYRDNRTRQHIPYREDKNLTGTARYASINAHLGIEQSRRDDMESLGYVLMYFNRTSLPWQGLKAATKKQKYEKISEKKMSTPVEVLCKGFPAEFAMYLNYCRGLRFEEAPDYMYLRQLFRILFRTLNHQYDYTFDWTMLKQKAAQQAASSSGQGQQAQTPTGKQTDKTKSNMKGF"}, "MST1": {"molecular_target": "T1, MST1 (Homo sapiens, UniProt Q13043)", "T1 construct": "gene STK4"}, "TEC": {"molecular_target": "TEC (Homo sapiens, UniProt P42680)"}, "CDKL5": {"molecular_target": "CDKL5 (Homo sapiens, UniProt O76039)", "sequence (O76039 whole entry)": "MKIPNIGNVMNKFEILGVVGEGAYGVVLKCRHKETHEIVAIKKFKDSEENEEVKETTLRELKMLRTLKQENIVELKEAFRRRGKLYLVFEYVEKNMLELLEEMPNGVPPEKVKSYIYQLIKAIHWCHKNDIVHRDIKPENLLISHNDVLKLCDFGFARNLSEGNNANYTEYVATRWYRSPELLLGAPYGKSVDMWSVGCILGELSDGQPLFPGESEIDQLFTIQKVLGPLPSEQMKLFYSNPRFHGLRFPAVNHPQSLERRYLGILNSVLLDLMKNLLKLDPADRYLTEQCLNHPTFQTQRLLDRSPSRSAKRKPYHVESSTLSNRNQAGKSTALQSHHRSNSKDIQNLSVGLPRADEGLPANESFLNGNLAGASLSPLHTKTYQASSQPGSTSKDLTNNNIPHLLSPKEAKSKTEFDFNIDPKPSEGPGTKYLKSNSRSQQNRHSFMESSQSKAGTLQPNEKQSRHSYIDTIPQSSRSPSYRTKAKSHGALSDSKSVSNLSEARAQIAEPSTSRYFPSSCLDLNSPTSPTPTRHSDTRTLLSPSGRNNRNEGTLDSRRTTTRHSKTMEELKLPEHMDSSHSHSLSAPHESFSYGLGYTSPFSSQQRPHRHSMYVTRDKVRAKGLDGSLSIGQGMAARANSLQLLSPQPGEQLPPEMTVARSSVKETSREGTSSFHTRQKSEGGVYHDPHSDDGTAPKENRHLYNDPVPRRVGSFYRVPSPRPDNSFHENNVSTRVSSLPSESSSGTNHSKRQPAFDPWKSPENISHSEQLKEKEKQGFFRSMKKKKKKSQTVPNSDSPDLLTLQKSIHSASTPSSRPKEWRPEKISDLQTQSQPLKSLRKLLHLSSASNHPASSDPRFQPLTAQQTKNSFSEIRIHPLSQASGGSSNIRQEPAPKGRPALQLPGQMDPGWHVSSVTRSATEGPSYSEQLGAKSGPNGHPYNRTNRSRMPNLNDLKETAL"}, "BMPR1B": {"molecular_target": "BMPR1B (Homo sapiens, UniProt O00238)"}, "TSSK3": {"molecular_target": "TSSK3 (Homo sapiens, UniProt Q96PN8)"}, "[1]": {"molecular_target": "T2, ABL1(E255K)-phosphorylated (Homo sapiens, UniProt P00519, E255K)", "T2 construct": "phosphorylated", "T2 sequence (P00519 whole entry E255K)": "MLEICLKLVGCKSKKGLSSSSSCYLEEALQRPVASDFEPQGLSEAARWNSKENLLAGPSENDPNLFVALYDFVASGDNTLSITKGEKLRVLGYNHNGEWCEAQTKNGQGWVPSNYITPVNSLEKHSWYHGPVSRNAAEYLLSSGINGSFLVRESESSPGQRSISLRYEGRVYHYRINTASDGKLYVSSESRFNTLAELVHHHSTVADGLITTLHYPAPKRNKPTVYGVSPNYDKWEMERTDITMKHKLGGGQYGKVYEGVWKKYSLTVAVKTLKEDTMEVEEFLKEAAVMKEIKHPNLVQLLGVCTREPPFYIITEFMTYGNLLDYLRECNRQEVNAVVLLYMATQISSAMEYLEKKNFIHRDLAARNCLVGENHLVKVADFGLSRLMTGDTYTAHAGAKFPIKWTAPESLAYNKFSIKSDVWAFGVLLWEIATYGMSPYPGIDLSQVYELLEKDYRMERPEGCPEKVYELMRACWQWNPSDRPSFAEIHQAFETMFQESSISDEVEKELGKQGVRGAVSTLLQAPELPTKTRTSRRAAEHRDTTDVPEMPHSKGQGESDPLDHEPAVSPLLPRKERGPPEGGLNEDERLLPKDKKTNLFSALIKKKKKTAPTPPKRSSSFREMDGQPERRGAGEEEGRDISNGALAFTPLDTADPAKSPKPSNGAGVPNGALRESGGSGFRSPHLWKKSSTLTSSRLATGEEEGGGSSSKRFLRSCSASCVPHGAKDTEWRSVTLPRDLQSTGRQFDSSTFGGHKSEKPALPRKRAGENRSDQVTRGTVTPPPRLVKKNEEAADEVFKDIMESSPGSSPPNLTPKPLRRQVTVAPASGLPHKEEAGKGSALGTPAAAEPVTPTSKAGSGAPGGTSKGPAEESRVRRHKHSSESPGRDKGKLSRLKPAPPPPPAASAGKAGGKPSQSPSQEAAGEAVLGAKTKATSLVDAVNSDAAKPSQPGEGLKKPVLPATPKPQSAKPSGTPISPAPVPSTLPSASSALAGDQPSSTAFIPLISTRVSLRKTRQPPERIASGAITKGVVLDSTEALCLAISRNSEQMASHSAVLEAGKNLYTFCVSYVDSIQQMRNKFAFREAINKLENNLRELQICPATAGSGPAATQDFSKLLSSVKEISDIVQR"}, "BRAF(V600E)": {"molecular_target": "BRAF(V600E) (Homo sapiens, UniProt P15056, V600E)"}, "PIK3CA(H1047Y)": {"molecular_target": "PIK3CA(H1047Y) (Homo sapiens, UniProt P42336, H1047Y)"}, "ARK5": {"molecular_target": "T3, ARK5 (Homo sapiens, UniProt O60285)", "T3 construct": "gene NUAK1"}, "NDR2": {"molecular_target": "T4, NDR2 (Homo sapiens, UniProt Q9Y2H1)", "T4 construct": "gene STK38L"}, "TAK1": {"molecular_target": "T5, TAK1 (Homo sapiens, UniProt O43318)", "T5 construct": "gene MAP3K7"}, "PAK4": {"molecular_target": "PAK4 (Homo sapiens, UniProt O96013)"}, "MAP3K15": {"molecular_target": "MAP3K15 (Homo sapiens, UniProt Q6ZN16)"}, "SGK3": {"molecular_target": "SGK3 (Homo sapiens, UniProt Q96BR1)", "sequence (Q96BR1 whole entry)": "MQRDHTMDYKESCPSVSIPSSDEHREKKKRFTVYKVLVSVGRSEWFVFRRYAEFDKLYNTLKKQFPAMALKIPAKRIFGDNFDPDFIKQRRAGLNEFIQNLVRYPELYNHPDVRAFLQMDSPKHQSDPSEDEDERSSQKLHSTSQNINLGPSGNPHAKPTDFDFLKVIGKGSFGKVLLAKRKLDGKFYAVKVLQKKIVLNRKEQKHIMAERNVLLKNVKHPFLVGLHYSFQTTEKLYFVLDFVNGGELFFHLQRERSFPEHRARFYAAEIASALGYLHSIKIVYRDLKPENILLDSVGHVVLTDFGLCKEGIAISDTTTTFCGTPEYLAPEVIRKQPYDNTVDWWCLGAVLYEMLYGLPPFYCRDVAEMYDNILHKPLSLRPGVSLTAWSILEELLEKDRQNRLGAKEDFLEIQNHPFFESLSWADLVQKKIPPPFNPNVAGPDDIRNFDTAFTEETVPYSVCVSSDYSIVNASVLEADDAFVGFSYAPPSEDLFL"}, "CSNK1G3": {"molecular_target": "CSNK1G3 (Homo sapiens, UniProt Q9Y6M4)", "sequence (Q9Y6M4 whole entry)": "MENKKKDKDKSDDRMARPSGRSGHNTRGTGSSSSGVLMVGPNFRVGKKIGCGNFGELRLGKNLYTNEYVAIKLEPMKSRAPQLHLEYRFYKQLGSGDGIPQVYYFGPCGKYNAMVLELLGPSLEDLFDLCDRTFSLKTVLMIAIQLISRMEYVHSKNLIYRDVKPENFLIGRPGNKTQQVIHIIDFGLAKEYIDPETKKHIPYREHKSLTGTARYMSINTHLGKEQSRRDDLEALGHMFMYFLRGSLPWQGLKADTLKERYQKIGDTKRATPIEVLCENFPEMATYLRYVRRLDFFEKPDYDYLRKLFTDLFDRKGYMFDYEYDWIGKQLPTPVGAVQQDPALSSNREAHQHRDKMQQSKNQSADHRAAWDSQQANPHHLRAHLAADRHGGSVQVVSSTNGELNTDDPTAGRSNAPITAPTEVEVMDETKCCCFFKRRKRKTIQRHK"}, "FLT4": {"molecular_target": "FLT4 (Homo sapiens, UniProt P35916)"}, "MYLK2": {"molecular_target": "MYLK2 (Homo sapiens, UniProt Q9H1R3)", "sequence (Q9H1R3 whole entry)": "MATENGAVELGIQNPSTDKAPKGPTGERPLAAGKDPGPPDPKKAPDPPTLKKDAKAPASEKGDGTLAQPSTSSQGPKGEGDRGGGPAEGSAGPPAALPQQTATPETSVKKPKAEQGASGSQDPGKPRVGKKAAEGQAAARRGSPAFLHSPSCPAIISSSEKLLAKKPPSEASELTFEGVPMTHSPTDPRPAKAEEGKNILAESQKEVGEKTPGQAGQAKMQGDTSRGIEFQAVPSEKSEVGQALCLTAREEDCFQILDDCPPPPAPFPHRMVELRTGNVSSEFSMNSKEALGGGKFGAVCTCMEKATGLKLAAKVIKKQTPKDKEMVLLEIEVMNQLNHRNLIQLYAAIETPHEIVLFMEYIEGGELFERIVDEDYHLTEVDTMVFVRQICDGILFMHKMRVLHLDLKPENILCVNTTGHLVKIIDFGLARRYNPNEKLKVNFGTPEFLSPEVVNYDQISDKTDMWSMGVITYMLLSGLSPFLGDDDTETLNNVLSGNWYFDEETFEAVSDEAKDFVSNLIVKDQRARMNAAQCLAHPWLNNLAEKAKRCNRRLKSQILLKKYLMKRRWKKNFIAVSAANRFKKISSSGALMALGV"}, "WNK4": {"molecular_target": "WNK4 (Homo sapiens, UniProt Q96J92)"}, "KIT(D816V)": {"molecular_target": "KIT(D816V) (Homo sapiens, UniProt P10721, D816V)", "sequence (P10721 whole entry D816V)": "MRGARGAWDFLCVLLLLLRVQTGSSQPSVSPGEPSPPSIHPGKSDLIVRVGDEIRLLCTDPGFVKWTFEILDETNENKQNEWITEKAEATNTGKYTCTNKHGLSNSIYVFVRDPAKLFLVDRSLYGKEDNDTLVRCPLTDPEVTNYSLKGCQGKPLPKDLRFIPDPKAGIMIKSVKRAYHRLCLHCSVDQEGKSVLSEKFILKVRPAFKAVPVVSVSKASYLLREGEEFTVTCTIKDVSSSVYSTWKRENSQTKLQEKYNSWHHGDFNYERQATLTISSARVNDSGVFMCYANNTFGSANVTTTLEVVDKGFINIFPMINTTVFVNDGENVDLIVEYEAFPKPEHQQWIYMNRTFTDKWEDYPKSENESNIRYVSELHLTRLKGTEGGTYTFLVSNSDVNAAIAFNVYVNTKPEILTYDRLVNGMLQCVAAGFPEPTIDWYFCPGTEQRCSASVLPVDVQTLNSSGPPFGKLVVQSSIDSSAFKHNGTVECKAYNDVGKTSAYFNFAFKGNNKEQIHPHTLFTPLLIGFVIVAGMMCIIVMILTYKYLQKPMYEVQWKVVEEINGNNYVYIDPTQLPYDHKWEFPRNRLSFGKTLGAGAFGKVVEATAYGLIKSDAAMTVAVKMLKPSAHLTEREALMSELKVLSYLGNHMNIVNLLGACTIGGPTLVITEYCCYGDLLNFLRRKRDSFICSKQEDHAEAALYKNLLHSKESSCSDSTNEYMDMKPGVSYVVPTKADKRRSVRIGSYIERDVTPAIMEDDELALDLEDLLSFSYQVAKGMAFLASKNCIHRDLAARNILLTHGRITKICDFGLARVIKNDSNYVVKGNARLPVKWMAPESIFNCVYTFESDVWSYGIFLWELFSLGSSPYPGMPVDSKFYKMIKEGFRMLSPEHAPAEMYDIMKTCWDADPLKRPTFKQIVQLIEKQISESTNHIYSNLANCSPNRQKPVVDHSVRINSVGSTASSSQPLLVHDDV"}}}
{"molecule": "Cc1cnc2nc1Nc1cccc(c1)COCc1cc(ccc1OCCN1CCCC1)N2", "note": "[Compound 1]", "values": [{"measurement": "remaining binding at 0.1 µM", "setting": "SLK", "value": 70, "unit": "%"}, {"measurement": "remaining binding at 0.1 µM", "setting": "SYK", "value": 99, "unit": "%"}, {"measurement": "remaining binding at 0.1 µM", "setting": "NEK4", "value": 79, "unit": "%"}, {"measurement": "remaining binding at 0.1 µM", "setting": "MTOR", "value": 82, "unit": "%"}, {"measurement": "remaining binding at 0.1 µM", "setting": "TTK", "value": 95, "unit": "%"}, {"measurement": "remaining binding at 0.1 µM", "setting": "CSNK1A1", "value": 95, "unit": "%"}, {"measurement": "remaining binding at 0.1 µM", "setting": "MST1", "value": 100, "unit": "%"}, {"measurement": "remaining binding at 0.1 µM", "setting": "TEC", "value": 94, "unit": "%"}, {"measurement": "remaining binding at 0.1 µM", "setting": "CDKL5", "value": 100, "unit": "%"}, {"measurement": "remaining binding at 0.1 µM", "setting": "BMPR1B", "value": 63, "unit": "%"}, {"measurement": "remaining binding at 0.1 µM", "setting": "TSSK3", "value": 78, "unit": "%"}, {"measurement": "remaining binding at 0.1 µM", "setting": "[1]", "value": 79, "unit": "%"}, {"measurement": "remaining binding at 0.1 µM", "setting": "BRAF(V600E)", "value": 93, "unit": "%"}, {"measurement": "remaining binding at 0.1 µM", "setting": "PIK3CA(H1047Y)", "value": 91, "unit": "%"}, {"measurement": "remaining binding at 0.1 µM", "setting": "ARK5", "value": 51, "unit": "%"}, {"measurement": "remaining binding at 0.1 µM", "setting": "NDR2", "value": 92, "unit": "%"}, {"measurement": "remaining binding at 0.1 µM", "setting": "TAK1", "value": 67, "unit": "%"}, {"measurement": "remaining binding at 0.1 µM", "setting": "PAK4", "value": 100, "unit": "%"}, {"measurement": "remaining binding at 0.1 µM", "setting": "MAP3K15", "value": 68, "unit": "%"}, {"measurement": "remaining binding at 0.1 µM", "setting": "SGK3", "value": 91, "unit": "%"}, {"measurement": "remaining binding at 0.1 µM", "setting": "CSNK1G3", "value": 100, "unit": "%"}, {"measurement": "remaining binding at 0.1 µM", "setting": "FLT4", "value": 85, "unit": "%"}, {"measurement": "remaining binding at 0.1 µM", "setting": "MYLK2", "value": 100, "unit": "%"}, {"measurement": "remaining binding at 0.1 µM", "setting": "WNK4", "value": 48, "unit": "%"}, {"measurement": "remaining binding at 0.1 µM", "setting": "KIT(D816V)", "value": 89, "unit": "%"}]}
